Measurements: patent US11957680B2, “Pyruvate kinase activators for use in treating blood disorders” (Agios Pharmaceuticals, Inc., priority 2017, dated 2024)

Assays:
wild type PKR [1] = molecular target: T1, wild type PKR (Homo sapiens, UniProt P30613); experiment: Cell based ATP assay in purified red blood cells (Cell-Titer-Glo); parameters: endogenous in cells; host or cells: purified red blood cells from healthy volunteers; settings: overnight at 37° C., ATP levels; for AC50: Table 2, RBCs
Procedure: Example 16. Red Blood Cell (RBC) Purification
Fresh blood drawn from healthy volunteers into K2EDTA tubes was collected. Whole blood was pelleted by spinning at 500 g for 10 minutes. Cut transfusion bag port off of Purecell leukocyte reduction neofilter (Fisher NC0267633) one (1) inch above filter. Attach a 10 ml syringe barrel to the remaining cut tubing attached to neofilter. The plasma layer was removed from the pellet of the whole blood and the pellet was resuspended in 2× volume of phosphate buffered saline (PBS). Transfer 9 ml re-suspended blood cell pellet to prepared 10 ml syringe that is attached to the neofilter. Allow whole blood to gravity flow through filter until all fluid runs through upper tubing into filter disc. Add plunger to the syringe, remove syringe from clamp and invert the filter, then plunge air through the syringe filter system. Using a new 5 ml syringe, remove filtered RBCs from the bag by the syringe port and transfer purified RBCs to a 5 ml snap cap tube that has been incubated on ice. Spin 5 ml snap cap tube at 500 g for 10 minutes at 15 C, aspirate supernatant and resuspend in AGAM (1×PBS, 1% glucose, 170 mg/L adenine, 5.25 g/L mannitol) at a density of 4×10^9 cells/mL.
Example 17. Cell Based ATP Assay
For cell based ATP assays, the compound as described herein was prepared in 100% DMSO as a 10 mM stock. Serial dilutions (1:4) were performed in 96-well V-bottom storage plate and then added 1:100 to 96-well V-bottom plates containing AGAM. RBCs were diluted in AGAM media to a density of 1×10^7 cells/mL before added 90 μL/well to black clear bottom assay plates (final compound concentration at 0.1% DMSO concentration). Assay plates were sealed using aluminum foil seals and incubated overnight at 37° C. in a humidified chamber. ATP levels were read out using Cell-Titer-Glo (Promega).

PKR K410E = PKR K410E (Homo sapiens, UniProt P30613, K410E); experiment: PKR mutant assay (K410E), AC50, LDH/NADH-coupled, absorbance at 340 nm; assay type: biochemical; settings: for EC50: Table 4, AC50, enzyme assay; for AC50: Table 2, enzyme assay
PKR K410E, sequence (P30613 whole entry K410E): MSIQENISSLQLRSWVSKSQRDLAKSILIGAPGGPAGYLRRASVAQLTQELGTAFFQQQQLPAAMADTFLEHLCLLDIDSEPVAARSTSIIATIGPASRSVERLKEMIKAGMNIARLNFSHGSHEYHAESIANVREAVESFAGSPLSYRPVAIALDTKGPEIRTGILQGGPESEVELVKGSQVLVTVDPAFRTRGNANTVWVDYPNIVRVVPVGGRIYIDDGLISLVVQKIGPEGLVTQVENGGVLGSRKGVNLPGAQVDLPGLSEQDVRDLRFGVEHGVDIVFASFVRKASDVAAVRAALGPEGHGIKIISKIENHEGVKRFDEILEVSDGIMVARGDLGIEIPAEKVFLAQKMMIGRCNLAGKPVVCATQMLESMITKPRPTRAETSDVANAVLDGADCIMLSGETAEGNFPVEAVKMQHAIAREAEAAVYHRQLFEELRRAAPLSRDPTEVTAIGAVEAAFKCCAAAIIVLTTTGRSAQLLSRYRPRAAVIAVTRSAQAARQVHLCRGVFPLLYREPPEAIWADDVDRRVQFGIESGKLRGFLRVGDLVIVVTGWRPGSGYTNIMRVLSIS
Procedure: (§1) Example 11. PKR Mutant Assay
(§2) PKR or PKR mutant enzyme solution was diluted into a reaction mix, which contains 1× buffer (100 mM KCl, 50 mM Tris pH 7.5, 5 mM MgCl2) as well as PEP (conc depends on enzyme), 180 μM NADH, 0.5 units LDH, 1 mM DTT, 0.03% BSA; final assay concentrations after 1.11 fold dilution are indicated.
(§3) 2 μL of test compound was added into wells first, and then 180 μL reaction mix was added.
(§4) Reactions mixture with test compound was assembled except for ADP, and plates were stored for 60 minutes at room temperature.
(§5) 20 uL ADP was added to start reaction at room temperature and reaction progress was measured as changes in absorbance at 340 nm wavelength at room temperature.
(§6) Test Compound Preparation:
(§7) Test compound stock was made at 100× concentration in 100% DMSO (10 mM)
(§8) 1 to 3 dilutions were made for 11 points (i.e. 50 μl of first concentration added to 100 μl 100% DMSO to yield 3.33 mM, 50 μl of this added to 100 μl DMSO to yield 1.11 mM, and so forth) • 1 to 100 dilution into assay (2 μl in 200 μl) yielded starting concentration of 100 μM, decreasing 3 fold for 11 points.
(§9) Assay Buffer: 100 mM KCl, 50 mM Tris 7.5, 5 mM MgCl2, 1 mM DTT, 0.03% BSA
(§10) Reaction Mixture: PKR mutant enzyme: 40-400 ng/well; ADP: 0.2-1.65 mM; PEP: 0.1-0.5 mM; NADH: 180 μM; LDH: 0.5 units (Sigma #59023); DTT: 1 mM; BSA: 0.03%.

PKR R510Q = PKR R510Q (Homo sapiens, UniProt P30613, R510Q); experiment: PKR mutant assay (R510Q), AC50, LDH/NADH-coupled, absorbance at 340 nm; assay type: biochemical; settings: for EC50: Table 4, AC50, enzyme assay, read-out: PK R510Q; for AC50: Table 2, enzyme assay, read-out: PK R510Q AC50
PKR R510Q, sequence (P30613 whole entry R510Q): as the sequence (P30613 whole entry K410E) above, with E410K, R510Q counted along it
Procedure: as §1, §2, §3, §4, §5, §6, §7, §8, §9, §10

wild type PKR [2] = molecular target: T1, wild type PKR; experiment: PKR (wild type) enzyme AC50 assay, LDH/NADH-coupled, absorbance at 340 nm; assay type: biochemical; settings: for EC50: Table 4, AC50, enzyme assay, read-out: PKR WT; for AC50: Table 2, enzyme assay, read-out: PKR WT AC50
Procedure: as §1, §2, §3, §4, §5, §6, §7, §8, §9, §10

T1 sequence (P30613 whole entry): as the sequence (P30613 whole entry K410E) above, with E410K counted along it

SMILES | EC50 (wild type PKR [1]; Table 4, AC50, RBCs) [nM] | EC50 (PKR K410E) [nM] | EC50 (PKR R510Q) [nM] | EC50 (wild type PKR [2]) [nM] | AC50 (wild type PKR [1]) [nM] | AC50 (PKR K410E) [nM] | AC50 (PKR R510Q) [nM] | AC50 (wild type PKR [2]) [nM] | Cell based ATP assay (wild type PKR [1]; Table 4, AC50, RBCs)
Cn1c2nc(Cn3ccnc3)sc2c2cnn(Cc3cccc4[nH]ncc34)c(=O)c21 [Compound 277] | > 1000 | 301 to 800 | > 800 | > 800 | – | – | – | – | –
Cn1c2nc([S+](C)[O-])sc2c2cnn(Cc3cccc4c3CCN4)c(=O)c21 (stereo not drawn) [Compound 79] | – | – | – | – | ≤ 1000 | < 300 | < 300 | < 300 | –
Cn1ncc2nc(Cn3ncc4c5sc(Cc6cc[nH]n6)nc5n(C)c4c3=O)ccc21 [Compound 288] | ≤ 1000 | < 300 | < 300 | < 300 | – | – | – | – | –
Cn1c2nc(CO)sc2c2cnn(Cc3cccc4[nH]ncc34)c(=O)c21 [Compound 105] | – | – | – | – | ≤ 1000 | < 300 | < 300 | < 300 | –
Cn1c2nc(SCc3ccccc3)sc2c2cnn(Cc3cccc4[nH]ncc34)c(=O)c21 [Compound 121] | – | – | – | – | > 1000 | > 800 | 301 to 800 | 301 to 800 | –
Cn1c2nc(Cc3cc[nH]n3)sc2c2cnn(Cc3cccc(O)c3)c(=O)c21 [Compound 369] | ≤ 1000 | < 300 | < 300 | < 300 | – | – | – | – | –
CC(=O)NC(c1cc[nH]n1)c1nc2c(s1)c1cnn(Cc3cccc4[nH]ncc34)c(=O)c1n2C (stereo not drawn) [Compound 178] | – | – | – | – | > 1000 | > 800 | > 800 | > 800 | –
CNc1cccc(Cc2nc3c(s2)c2cnn(Cc4cccc5[nH]ncc45)c(=O)c2n3C)c1 [Compound 103] | – | – | – | – | ≤ 1000 | < 300 | < 300 | < 300 | –
COc1cccc(Cn2ncc3c4scnc4n(C)c3c2=O)c1 [Compound 19] | – | – | – | – | > 1000 | 301 to 800 | < 300 | 301 to 800 | –
Cn1c2nc(Cc3cc[nH]n3)sc2c2cnn(Cc3ccc4c(c3)OCO4)c(=O)c21 [Compound 226] | ≤ 1000 | < 300 | < 300 | < 300 | – | – | – | – | –
Cn1c2nc(Cc3cc[nH]n3)sc2c2cnn(Cc3cccc4nn[nH]c34)c(=O)c21 [Compound 202] | ≤ 1000 | < 300 | < 300 | < 300 | – | – | – | – | –
Cn1c2nc(Cn3cnnc3)sc2c2cnn(Cc3cccc4[nH]ncc34)c(=O)c21 [Compound 294] | > 1000 | > 800 | 301 to 800 | > 800 | – | – | – | – | –
CN(c1csc(Cc2cnc(=O)[nH]c2)n1)c1ccnn(Cc2cccc3[nH]ncc23)c1=O [Compound 208] | > 1000 | > 800 | > 800 | > 800 | – | – | – | – | –
Cn1c2nc([C@@H](O)c3cc[nH]n3)sc2c2cnn(Cc3cccc4[nH]ncc34)c(=O)c21 [Compound 304] | ≤ 1000 | < 300 | < 300 | < 300 | – | – | – | – | –
Cc1nc2c(s1)c1cnn(Cc3ccc(N)cc3)c(=O)c1n2C [Compound 49] | – | – | – | – | > 1000 | > 800 | > 800 | > 800 | –
Cn1c2nc(Cc3ccccn3)sc2c2cnn(CC3CCOCC3)c(=O)c21 [Compound 403] | – | > 800 | > 800 | > 800 | – | – | – | – | No Fit
Cc1nc2c(s1)c1cnn(Cc3ccc(F)cc3)c(=O)c1n2C [Compound 9] | – | – | – | – | ≤ 1000 | < 300 | < 300 | < 300 | –
Cn1c2nc([S+](C)[O-])sc2c2cnn(Cc3cnc(N)s3)c(=O)c21 (stereo not drawn) [Compound 101] | – | – | – | – | > 1000 | > 800 | > 800 | > 800 | –
